Measurements from PubChem BioAssay AID977621 (Broad Institute, 2014).
Results filed as inconclusive are left out. Calls of active or inactive are those of the source.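 Rule for the calls: active = Wild-type ribosome reporter drop at least double the humanized mutant ribosome reporter drop, growth loss under a set limit; inconclusive = no clear call, values can overlap the other calls; inactive = the rest.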

These compounds were tested on E. coli wild-type GFP strain growth, fluorescence, 24 h (assay: wild-type E. coli growth inhibition versus H69 humanized strain – H69 mutant RFP, wild-type GFP, cherry-pick, dose response (AID 977621;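 note: wild-type GFP and H69 mutant RFP strains grown together 50/50 in each well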)). Details: not given.
`Cc1cc(C(=O)NCCC2=CCCCC2)ccc1[N+](=O)[O-]` was tested, and the AC50 was > 100 µM (inactive).
`CCc1ccc2nc(N(CCCN(C)C)C(=O)c3ccc4c(c3)OCCO4)sc2c1` was tested, and the AC50 was > 100 µM (inactive).
With `Cc1ccc(OCC(O)CN2CCN(c3ccccn3)CC2)c(C)c1` (stereo unspecified) the AC50 was > 100 µM (inactive).
In the case of `Cc1ccc(OCc2nc(C#N)c(N3CCCCC3)o2)cc1`, the AC50 is reported as > 100 µM (inactive).
For `O=C(Nc1cccc(Cl)c1)N1C[C@H]2[C@@H](c3ccccc31)[C@@H](CO)N2C(=O)c1ccncc1`, the AC50 was > 100 µM (inactive).
For `O=C(C[C@@H]1CC[C@@H]2[C@H](COC[C@H](O)CN2C(=O)Nc2ccc(Cl)cc2)O1)N1CCCCC1`, the AC50 was > 100 µM (inactive).
For `O=C1c2ccccc2C(c2nnnn2Cc2ccccc2)N1CCc1ccc(O)cc1` (stereo unspecified), the AC50 was > 100 µM (inactive).
`Nc1ccccc1C#CC(=O)c1ccccc1` was tested, and the AC50 was > 100 µM (inactive).
For `C[C@@H]1CN([C@@H](C)CO)C(=O)CCCn2nncc2CO[C@H]1CN(C)C(=O)Nc1ccc(C(F)(F)F)cc1`, the AC50 was > 100 µM (inactive).
`CCCNC(=O)c1cc(C2CCCN(S(=O)(=O)c3cccc4cccnc34)C2)on1` (stereo unspecified) was tested, and the AC50 was > 100 µM (inactive).
For `CSc1nc(SC(C)C(=O)O)c2c3c(sc2n1)COC(C)(C)C3` (stereo unspecified), the AC50 was > 100 µM (inactive).
For `O=C1C(c2ccccc2)c2ccccc2N1Cc1ccccc1` (stereo unspecified), the AC50 was > 100 µM (inactive).
With `O=C(C[n+]1ccn(-c2ccccc2)c1)c1ccc([N+](=O)[O-])cc1` the AC50 was > 100 µM (inactive).
With `O=C(CC(=O)c1cccs1)c1ccncc1` the AC50 was > 100 µM (inactive).
In the case of `CC(C)(C)N(Cc1ccccc1)C(=O)CN1C(=O)c2ccccc2S1(=O)=O`, the AC50 is reported as > 100 µM (inactive).
`Cc1cc(C)c2sc(N(CCN(C)C)C(=O)c3c(F)cccc3F)nc2c1` was tested, and the AC50 was > 100 µM (inactive).
For `CN1CCN(C(=O)c2cc3sc4ccccc4c3s2)CC1`, the AC50 was > 100 µM (inactive).
`CCOC(=O)c1[nH]c2ccccc2c1NC(=O)c1ccc(Br)o1` was tested, and the AC50 was > 100 µM (inactive).
`CCOC(=O)c1sc2nc(NC(=O)C(C)(C)C)sc2c1C` was tested, and the AC50 was > 100 µM (inactive).
For `O=C(Cn1c2[n+](c3ccc(C(F)(F)F)cc31)CCCCC2)c1ccc2c(c1)OCCO2`, the AC50 was > 100 µM (inactive).
With `COc1cc(SC)ccc1C(=O)N1CCN(c2ccccc2F)CC1` the AC50 was > 100 µM (inactive).
For `CCOC(=O)Cc1csc(SCC(=O)Nc2cc(C)ccc2OC)n1`, the AC50 was > 100 µM (inactive).
With `COc1ccc(CN(CC(O)COCc2ccccc2)S(=O)(=O)c2ccccc2Br)cc1OC` (stereo unspecified) the AC50 was > 100 µM (inactive).
With `COc1ccc(NS(=O)(=O)c2ccc(Cl)c(NC(=O)c3ccccc3F)c2)cc1` the AC50 was > 100 µM (inactive).
`O=C1NC(=O)C2(Cc3cc([N+](=O)[O-])ccc3N3CCN(C(=O)c4ccccc4)CC32)C(=O)N1` (stereo unspecified) was tested, and the AC50 was > 100 µM (inactive).
In the case of `COc1ccc(OC)c(S(=O)(=O)Nc2cccc3ccccc23)c1`, the AC50 is reported as > 100 µM (inactive).
For `CCCN(CC1CC1)C(=O)CSc1ncnc2sccc12`, the AC50 was > 100 µM (inactive).
`COc1ccc(C(=O)N(c2ccccc2)c2nccc3ccccc23)cc1OC` was tested, and the AC50 was > 100 µM (inactive).
With `OC(COc1ccc(Cl)cc1)CN1CCN(c2ccccn2)CC1` (stereo unspecified) the AC50 was > 100 µM (inactive).
In the case of `COc1cccc(C(=O)N2C[C@@H]3[C@H](c4ccccc42)[C@H](CO)N3Cc2ccccc2Cl)c1`, the AC50 is reported as > 100 µM (inactive).
In the case of `COc1cccc(-c2ccc(SCc3ccccn3)nn2)c1`, the AC50 is reported as > 100 µM (inactive).
For `Cc1ccc(S(=O)(=O)NC(C)C(=O)NCc2ccc(Cl)cc2)cc1` (stereo unspecified), the AC50 was > 100 µM (inactive).
For `O=C(NCc1ccc2c(c1)OCO2)c1sccc1Br`, the AC50 was > 100 µM (inactive).
In the case of `COc1cc2[nH]c(=S)nc(NCCc3ccc(C)cc3)c2cc1OC`, the AC50 is reported as > 100 µM (inactive).
With `Cc1ccc(C(=O)Nc2ccc3ncccc3c2)cc1` the AC50 was > 100 µM (inactive).
In the case of `Cc1ccc(OCCn2c(=S)[nH]c3c(N)ncnc32)cc1`, the AC50 is reported as > 100 µM (inactive).
For `CS(=O)(=O)NCCSc1cc(C(F)(F)F)nc2ccccc12`, the AC50 was > 100 µM (inactive).
With `Nc1ccc2nc(-c3ccc(Cl)cc3)[nH]c2c1` the AC50 was > 100 µM (inactive).
In the case of `Cc1nc(C)c(-c2ccn(S(=O)(=O)c3ccc(Cl)cc3)n2)o1`, the AC50 is reported as > 100 µM (inactive).
In the case of `COc1ccc(N2C(=O)C3C(C2=O)C3(c2ccccc2)c2ccccc2)cc1` (stereo unspecified), the AC50 is reported as > 100 µM (inactive).
`O=C(COC(=O)c1cccc(S(=O)(=O)N2CCCCC2)c1)NCc1cccc(Cl)c1` was tested, and the AC50 was > 100 µM (inactive).
In the case of `O=[N+]([O-])c1cncc([N+](=O)[O-])c1Nc1cccc(O)c1`, the AC50 is reported as > 100 µM (inactive).
`COc1ccc(-c2cn(-c3ccc(Cl)cc3)c3[n+]2CCCCC3)cc1` was tested, and the AC50 was > 100 µM (inactive).
`O=C(O)c1ccc(Oc2ccc([N+](=O)[O-])cc2)c([N+](=O)[O-])c1` was tested, and the AC50 was > 100 µM (inactive).
`O=C1N[C@@H](Cc2ccccc2)COC(=O)[C@H](Cc2ccc(F)cc2)C/C=C\C[C@H]1CC(=O)N(CCO)Cc1ccccc1` was tested, and the AC50 was > 100 µM (inactive).
For `COc1ccc(NS(=O)(=O)c2ccc(NC(=O)c3ccccc3Br)cc2)nn1`, the AC50 was > 100 µM (inactive).
In the case of `COc1ccc(C(=O)C2CCCN(C(=O)c3noc4c3CCCC4)C2)cc1F` (stereo unspecified), the AC50 is reported as > 100 µM (inactive).

Same assay, conditions: E. coli mixed culture, 24 h; measured here: total growth OD600, test 2
Compound `Cc1ccc(OCC(O)CN2CCN(c3ccccn3)CC2)c(C)c1` (stereo unspecified) has an AC50 of 45.6 µM.
In the case of `Cc1ccc(OCc2nc(C#N)c(N3CCCCC3)o2)cc1`, the AC50 is reported as 42.7 µM.
Compound `O=C(C[C@@H]1CC[C@@H]2[C@H](COC[C@H](O)CN2C(=O)Nc2ccc(Cl)cc2)O1)N1CCCCC1` has an AC50 of 46 µM.
For `CCc1cc2ccc(OC)cc2nc1SCC(=O)N1CCN(C(=O)c2ccco2)CC1`, the AC50 was 42.2 µM.
`Cc1ccc(NC(=O)C2CCCN(c3ncnc4c3nc3n4CCCCC3)C2)cc1Cl` (stereo unspecified) was tested, and the AC50 was over 100 µM.
`S=C1SCN(Cc2cccnc2)CN1Cc1cccnc1` gave an AC50 of over 100 µM.
Work on `CCOCCCNC(=O)C(NC(=O)c1ccccc1O)c1ccc(C)cc1` (stereo unspecified) yielded an AC50 of over 100 µM.
Compound `COc1ccc(-c2cc(C(=O)Nc3ccc(C(N)=O)cc3)c3ccccc3n2)cc1OC` has an AC50 of over 100 µM.
Compound `Cc1ccc(C(=O)NCC(=O)OCC(=O)Nc2cccc(S(=O)(=O)N3CCCC3)c2)cc1C` has an AC50 of over 100 µM.
For `C=CCN(c1ccccc1)S(=O)(=O)c1cccc2cccnc12`, the AC50 was over 100 µM.
With `Cc1cc(C)c2sc(N(CCN(C)C)C(=O)c3c(F)cccc3F)nc2c1` the AC50 was over 100 µM.
In the case of `CCOC(=O)c1sc2nc(NC(=O)C(C)(C)C)sc2c1C`, the AC50 is reported as 38.9 µM.
Work on `Cc1noc(C)c1S(=O)(=O)N(Cc1ccccc1)C(C)C` yielded an AC50 of over 100 µM.
For `CCOc1ccccc1N1CC(C(=O)Nc2cccc(S(=O)(=O)N3CCCCC3)c2)CC1=O` (stereo unspecified), the AC50 was over 100 µM.
Compound `Cc1cc(C(=O)COC(=O)CNC(=O)c2ccccc2)c(C)n1CC1CCCO1` (stereo unspecified) has an AC50 of over 100 µM.
`O=C(NCc1cccnc1)C1CCN(S(=O)(=O)c2cc([N+](=O)[O-])ccc2Cl)CC1` was tested, and the AC50 was over 100 µM.
For `CCOC(=O)Cc1csc(SCC(=O)Nc2cc(C)ccc2OC)n1`, the AC50 was over 100 µM.
In the case of `COc1ccc(CN(CC(O)COCc2ccccc2)S(=O)(=O)c2ccccc2Br)cc1OC` (stereo unspecified), the AC50 is reported as 28.5 µM.
`CCOC(=O)c1c(C)nsc1NCc1ccccc1` gave an AC50 of over 100 µM.
For `COc1ccc(-c2csc(C)n2)cc1Br`, the AC50 was over 100 µM.
For `COc1cccc(C(=O)N2C[C@@H]3[C@H](c4ccccc42)[C@H](CO)N3Cc2ccccc2Cl)c1`, the AC50 was 48.8 µM.
`COc1cccc(-c2ccc(SCc3ccccn3)nn2)c1` was tested, and the AC50 was 48.2 µM.
With `Cc1ccc(S(=O)(=O)NC(C)C(=O)NCc2ccc(Cl)cc2)cc1` (stereo unspecified) the AC50 was over 100 µM.
`Cc1cc(Cl)ccc1OCCCC(=O)OCC(N)=O` gave an AC50 of over 100 µM.
Compound `Cc1ccc(S(=O)(=O)N2CCCCC2C(=O)N2CCN(c3ccccc3F)CC2)cc1` (stereo unspecified) has an AC50 of over 100 µM.
With `CCOc1cccc(-c2cc(-c3n[nH]c(=S)n3CC)c3ccccc3n2)c1` the AC50 was 38.3 µM.
In the case of `COc1cc(OC)cc(C(=O)Nc2ccc(S(=O)(=O)Nc3cnc4ccccc4n3)cc2)c1`, the AC50 is reported as 33 µM.
In the case of `Cc1ccc(OCCn2c(=S)[nH]c3c(N)ncnc32)cc1`, the AC50 is reported as 31.8 µM.
`CS(=O)(=O)NCCSc1cc(C(F)(F)F)nc2ccccc12` was tested, and the AC50 was 30.4 µM.
Work on `CC(=O)c1ccc(OCC(=O)Nc2ccc3c(c2)CCC3)cc1` yielded an AC50 of over 100 µM.
Work on `O=C(CSCc1c(Cl)cccc1Cl)NCc1ccccn1` yielded an AC50 of over 100 µM.
`CCOC(=O)C(C)Sc1nc(N2CCOCC2)c2c(c1C#N)CC(C)(C)OC2` (stereo unspecified) showed an AC50 of over 100 µM.
`CCN(c1ccccc1)S(=O)(=O)c1ccc(Cl)c(C(=O)NCc2ccco2)c1` was tested, and the AC50 was 33.8 µM.

Same assay, conditions: measured here: total growth OD600, test 2
Work on `O=C1CC(=O)N(Cc2ccccc2)C(=O)N1CCCCCCN1C(=O)CC(=O)N(Cc2ccccc2)C1=O` yielded an AC50 of over 100 µM.
